Results as given in the supplement of paper PMC9013687.
± gives the standard deviation of the averaged measurements.

Columns and labels:
[1] = test system: Danio rerio embryo; experiment: EC10 Head size_Decrease; higher = less potent; details: exposure time: 2 dpf
Method: (§1)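 Zebrafish embryos (UFZ-OBI strain) were exposed from 2 hpf for 48 h (2 dpf) or 96 h (4 dpf) at 28 °C; spontaneous tail coiling was scored at 25 hpf. Morphological features from automated image analysis (FishInspector), heart rate and locomotor response were fitted with drc models. Quantal endpoints were dichotomised at 2.5 SD from controls and fitted with a log-logistic model; heart rate, pigmentation and STC were normalised to the replicate control mean. Betamethasone was tested as betamethasone dipropionate, diflorasone as diflorasone diacetate.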

[2] = test system: Danio rerio embryo; experiment: EC10 Lack of SB; higher = less potent; details: exposure time: 4 dpf
Method: as §1

[3] = test system: Danio rerio embryo; experiment: EC50 Eye-jaw distance_Decrease; details: exposure time: 4 dpf
Method: as §1

[4] = test system: Danio rerio embryo; experiment: EC10 Yolk sac size_Increase; higher = less potent
Method: as §1

[5] = test system: Danio rerio embryo; experiment: EC50 Bladder size_Decrease; details: exposure time: 4 dpf
Method: as §1

[6] = test system: Danio rerio embryo; experiment: EC50 Eye size_Decrease; details: exposure time: 2 dpf
Method: as §1

[7] = test system: Danio rerio embryo; experiment: EC20 Lack of SB; higher = less potent; details: exposure time: 4 dpf
Method: as §1

[8] = test system: Danio rerio embryo; experiment: EC20 Eye size_Decrease; higher = less potent; details: exposure time: 2 dpf
Method: as §1

[9] = test system: Danio rerio embryo; experiment: EC20 Any effect; higher = less potent
Method: as §1

[10] = test system: Danio rerio embryo; experiment: EC20 Bladder size_Decrease; higher = less potent; details: exposure time: 4 dpf
Method: as §1

[11] = test system: Danio rerio embryo; experiment: EC10 Bladder size_Decrease; higher = less potent; details: exposure time: 4 dpf
Method: as §1

[12] = test system: Danio rerio embryo; experiment: EC10 STC decrease; higher = less potent; details: exposure time: 25 h
Method: as §1

[13] = test system: Danio rerio embryo; experiment: spontaneous tail coiling frequency (coils/min/embryo); higher = more spontaneous movement; details: 25 hpf
Method: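 Spontaneous tail coilings of zebrafish embryos exposed from 2 hpf were recorded at 24-25 hpf in 1-min videos and detected by a KNIME workflow from grey-value variance. Betamethasone was tested as the dipropionate, diflorasone as the diacetate.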

[14] = test system: Danio rerio embryo; experiment: EC10 Curvature_Increase; higher = less potent
Method: as §1

[15] = test system: Danio rerio embryo; experiment: EC20 LMR dark; higher = less potent; details: exposure time: 4 dpf
Method: as §1

[16] = test system: Danio rerio embryo; experiment: EC20 Pericard size_Increase; higher = less potent; details: exposure time: 2 dpf
Method: as §1

[17] = test system: Danio rerio embryo; experiment: EC10 LMR ligth decrease; higher = less potent; details: exposure time: 4 dpf
Method: as §1

[18] = test system: Danio rerio embryo; experiment: EC20 Eye-jaw distance_Decrease; higher = less potent; details: exposure time: 4 dpf
Method: as §1

[19] = test system: Danio rerio embryo; experiment: EC50 Curvature_Increase
Method: as §1

[20] = test system: Danio rerio embryo; details: exposure time: 4 dpf
Method: as §1

[21] = test system: Danio rerio embryo; experiment: EC50 Body length_Decrease
Method: as §1

CC1=C(/C=C/C(C)=C/C=C/C(C)=C/C(=O)O)C(C)(C)CCC1 [all-trans retinoic acid]
Details | EC10 Bladder size Decrease [nM] | EC10 Head size Decrease [nM] | EC10 LMR ligth decrease [nM] | EC10 Lack of SB [nM] | EC10 STC decrease [nM] | EC20 Bladder size Decrease [nM] | EC20 Eye size Decrease [nM] | EC20 Eye-jaw distance Decrease [nM] | EC20 LMR dark [nM] | EC20 Lack of SB [nM] | EC20 Pericard size Increase [nM] | EC50 Bladder size Decrease [nM] | EC50 Eye size Decrease [nM] | EC50 Eye-jaw distance Decrease [nM] | EC50 Lack of SB [nM]
[1] | – | 19 | – | – | – | – | – | – | – | – | – | – | – | – | –
[2] | – | – | – | 12 | – | – | – | – | – | – | – | – | – | – | –
[3] | – | – | – | – | – | – | – | – | – | – | – | – | – | 33 | –
[5] | – | – | – | – | – | – | – | – | – | – | – | 17 | – | – | –
[6] | – | – | – | – | – | – | – | – | – | – | – | – | 38 | – | –
[7] | – | – | – | – | – | – | – | – | – | 15 | – | – | – | – | –
[8] | – | – | – | – | – | – | 36 | – | – | – | – | – | – | – | –
[10] | – | – | – | – | – | 12 | – | – | – | – | – | – | – | – | –
[11] | 11 | – | – | – | – | – | – | – | – | – | – | – | – | – | –
[12] | – | – | – | – | 1.22 | – | – | – | – | – | – | – | – | – | –
[15] | – | – | – | – | – | – | – | – | 22 | – | – | – | – | – | –
[16] | – | – | – | – | – | – | – | – | – | – | 36 | – | – | – | –
[17] | – | – | 1.7 | – | – | – | – | – | – | – | – | – | – | – | –
[18] | – | – | – | – | – | – | – | 28 | – | – | – | – | – | – | –
[20] | – | – | – | – | – | – | – | – | – | – | – | – | – | – | 20

Details | EC10 Curvature Increase [nM] | EC10 Yolk sac size Increase [nM] | EC20 Any effect [nM] | EC50 Body length Decrease [nM] | EC50 Curvature Increase [nM] | spontaneous tail coiling frequency
[4], exposure time: 2 dpf | – | 13 | – | – | – | –
[4], exposure time: 4 dpf | – | 34 | – | – | – | –
[9], exposure time: 2 dpf | – | – | 8 | – | – | –
[9], exposure time: 4 dpf | – | – | 7 | – | – | –
[13], 1 µM | – | – | – | – | – | 3.33
[13], 6.25 µM | – | – | – | – | – | 2.34 ± 0.24
[13], 12.5 µM | – | – | – | – | – | 2.17 ± 0.16
[13], 25 µM | – | – | – | – | – | 2.1 ± 0.75
[13], 50 µM | – | – | – | – | – | 1.74 ± 0.17
[14], exposure time: 2 dpf | 7 | – | – | – | – | –
[14], exposure time: 4 dpf | 6 | – | – | – | – | –
[19], exposure time: 2 dpf | – | – | – | – | 13 | –
[19], exposure time: 4 dpf | – | – | – | – | 10 | –
[21], exposure time: 2 dpf | – | – | – | 36 | – | –
[21], exposure time: 4 dpf | – | – | – | 48 | – | –
